Assay results as given in patent US20230068020A1, “MACROLIDE COMPOUND AND ITS USE OF TREATMENT CHRONIC RESPIRATORY DISEASE” (priority 2020, published 2023).

How the values were obtained:
Type in all cases: cell-based
[1] = system: Acinetobacter baumanii ATCC 17978; assay: Antibacterial activity, agar dilution MIC; conditions: Acinetobacter baumannii, ATCC17978, 20-24 hrs incubation, read-out: minimum inhibitory concentration MIC
Description: (§1) The antibacterial activity of Erythromycin and compounds of examples were evaluated by the agar dilution method, following the guidelines of the CLSI. […] Briefly, bacteria were grown overnight in adapted media (MHIIA with 5% of sheep blood for Streptococcus pneumoniae and Haemophilus influenzae, and MHIIA for the other bacteria strains) at 35° C., 5% CO2.
(§2) Cultures were centrifuged at 3000×g for 15 min. Pellets were diluted with 5 mls cold PBS and the OD600nm was adjusted to 10^8 CFU.mL^−1 with a spectrometer. Bacteria were then added to 96-well test plates. Compounds were diluted in DMSO in a 2 fold steps from 20 mg/ml in DMSO in 96 well plated and transferred to the test plate. During the incubation, the plate was maintained at 35° C., 5% CO2.
(§3) The MICs for Erythromycin and compounds of examples were determined after 20-24 hrs incubation.

[2] = system: Acinetobacter baumannii ATCC-BAA-1605; assay: Antibacterial activity, agar dilution MIC; conditions: ATCCBAA1605, 20-24 hrs incubation, read-out: minimum inhibitory concentration MIC
Description: as §1, §2, §3

[3] = system: Enterococcus faecalis ATCC 29212; assay: Antibacterial activity, agar dilution MIC; conditions: ATCC29212, 20-24 hrs incubation, read-out: minimum inhibitory concentration MIC
Description: as §1, §2, §3

[4] = system: Haemophilus influenzae ATCC 49247; assay: Antibacterial activity, agar dilution MIC; conditions: ATCC49247, 20-24 hrs incubation, read-out: minimum inhibitory concentration MIC
Description: as §1, §2, §3

[5] = system: Moraxella catarrhalis ATCC 43617; assay: Antibacterial activity, agar dilution MIC; conditions: ATCC43617, 20-24 hrs incubation, read-out: minimum inhibitory concentration MIC
Description: as §1, §2, §3

[6] = system: Staphylococcus aureus ATCC 29213; assay: Antibacterial activity, agar dilution MIC; conditions: ATCC29213, 20-24 hrs incubation, read-out: minimum inhibitory concentration MIC
Description: as §1, §2, §3

[7] = system: Staphylococcus aureus NRS 384; assay: Antibacterial activity, agar dilution MIC; conditions: NRS384, 20-24 hrs incubation, read-out: minimum inhibitory concentration MIC
Description: as §1, §2, §3

[8] = system: Streptococcus pneumoniae ATCC 49619; assay: Antibacterial activity, agar dilution MIC; conditions: ATCC49619, 20-24 hrs incubation, read-out: minimum inhibitory concentration MIC
Description: as §1, §2, §3

[9] = system: Streptococcus pneumoniae ATCC 6301; assay: Antibacterial activity, agar dilution MIC; conditions: ATCC6301, 20-24 hrs incubation, read-out: minimum inhibitory concentration MIC
Description: as §1, §2, §3

[10] = system: Streptococcus pyogenes ATCC BAA-572; assay: Antibacterial activity, agar dilution MIC; conditions: ATCCBAA572, 20-24 hrs incubation, read-out: minimum inhibitory concentration MIC
Description: as §1, §2, §3

[11] = system: THP-1 cell; assay: Differentiation of monocyte to macrophage in THP-1 cell line; conditions: Homo sapiens; for EC50: THP-1 differentiate to macrophage, PMA, 96 hrs incubation; for Emax: ratio of best effect of compound to that of erythromycin 100 uM, THP-1 differentiation, read-out: Maximal activation level
Description: The THP-1 cell line was purchased from ATCC (American Type Culture Collection, Manassas, Va.). Cells were maintained in growth medium (RPMI-1640) with supplemented with 10% heat inactivated bovine serum, 100× Glutamax medium and 0.05 mM β-Mercaptoethanol at 37° C. under 5% CO2. Compounds were dissolved in 0.1% DMSO. Erythromycin was used as a positive control.
For the assessment of the effect of compounds of the present invention on differentiation of monocyte to macrophage in THP-1 cell line, cells were collected and centrifuged at 900 rpm for 4 minutes. The cell density was adjusted to 2.5×10^5/mL. cell suspension of 400 μL was added to each well of 48-well plate following the plate layout. PMA 1 mg, a compound can induce monocyte differentiation, was dissolved in 10 mL DMSO to form 100 μg/mL solution and aliquote it into 1 mL per vial. 1 mL solution can be further aliquoted into 10 μL per vial and stored the aliquots at −20° C. Make 10-fold dilution of PMA with DMSO and then 500-fold dilution with complete medium. 50 μL solution were then added to each well of 48-well plate following the plate layout. Erythromycin and compounds of examples at stock concentration of 10 mM was serially diluted at 10-fold in DMSO. 50 μL solution was added to each well of 48-well plate following the plate layout. After 96 hrs incubation at 37° C., 5% CO2, the plate was washed with DPBS for three times to remove non-adherent cells for three times. Complete medium 180 μL and alarmar blue 20 μL was added to each well. The fluorescent intensity was read at excitation 530 nm and emission 590 nm using PerkinElmer Victor3 after 3 hours plate incubation.
The differentiation activity of compounds of Examples is compared to that of 100 μM erythromycin and the results are shown in FIG. 1 and Table 3.

[12] = system: THP-1 cell; assay: Cell viability (LD50) in THP-1 differentiation test; conditions: human
Description: The medium lethal dose (LD50) is the dosage of a compound that reduces the cell viability by 50%, and is determined using non-linear logistic regression.

[13] = system: IL-8 expression in BEAS-2B cell; assay: LPS induced IL-8 release by BEAS-2B (ELISA); conditions: for Maximum Inhibition: IL-8 expression in BEAS-2B cells, LPS; for IC10: concentration inhibiting IL-8 production on BEAS-2B by 10%, LPS 20 μg/mL
Description: The inhibitory effect of compounds of Examples on the IL-8 expression in BEAS-2B cell was tested using the following method. BEAS-2B was purchased from ATCC (American Type Culture Collection, Manassas, Va.). Cells were maintained in growth medium (LHC-9) and cultured at 37° C. under 5% CO2. Compounds were dissolved in 0.1% DMSO. Erythromycin was used as a positive control.
For the assessment of the effect of compounds of Examples on IL-8 expression inhibition in BEAS-2B cell line, cells were plated in 24 well plate at a density of 100,000/mL, in a final volume of 1 mL of assay medium. Cells were incubated at 37° C., 5% CO2 for 1 day. After the incubation, compounds were added at day 2 and LPS was added at day 3. A compound source plate was prepared by triplicate five-point 10-fold or 2-fold serial dilutions in DMSO, beginning at 1 mM (final top concentration of compounds of Examples in the assay was 100 μM and the DMSO was 0.1%). The positive control consisted of cells treated with 100 μM erythromycin and negative control was consisted of 0.1% DMSO treated cells. LPS stock solution at 5 mg/mL was made by dissolving 10 mg of LPS powder into 2 mL of ddH2O and aliquoted to 100 μL per vial. Final concentration of LPS in the assay was […] by making 125-fold dilution of stock solution with medium.
Specific immunoreactivity for IL-8 in culture supernatants were measured by a commercially available ELISA kits (R&D Systems, Inc., Minneapolis, Minn.). Each sample was assayed in duplicates as recommended by the manufacture. The concentration of compounds of Examples inhibiting IL-8 production on BEAS-2B by 10% was estimated from a 4-parametric of the normalized dose response curve. (IC10)

[14] = system: BEAS-2B cell; assay: Cell viability (LD10) in BEAS-2B IL-8 test; conditions: BEAS-2B cell viability
Description: The lethal dose (LD10) is the dosage of a compound that reduces the cell viability by […], and is estimated from non-linear logistic regression.

CC[C@H]1OC(=O)[C@H](C)[C@@H](OC2CC(C)(OC)C(O)C(C)O2)[C@H](C)[C@@H](OC2CC(N(C)C(C)=O)CC(C)O2)C(C)(O)C[C@@H](C)C(=O)[C@H](C)[C@@H](O)[C@]1(C)O (stereo in doubt) [LY101-22, N-((2S,4S,6R)-2-(((3R,4S,5S,6R,7R,9R,11R,12R,13S,14R)-14-ethyl-7,12,13-trihydroxy-4-(((2R,4R,5S,6S)-5-hydroxy-4-methoxy-4,6-dimethyltetrahydro-2H-pyran-2-yl)oxy)-3,5,7,9,11,13-hexamethyl-2,10-dioxooxacyclotetradecan-6-yl)oxy)-6-methyltetrahydro-2H-pyran-4-yl)-N-methylacetamide] showed an MIC [1] greater than 128 µg/mL, an MIC [2] greater than 128 µg/mL and an MIC [3] greater than 128 µg/mL. It also gave an MIC [4] greater than 128 µg/mL, an MIC [5] greater than 128 µg/mL and an MIC [6] greater than 128 µg/mL. For the same compound, the MIC [7] was greater than 128 µg/mL, the MIC [8] was greater than 128 µg/mL and the MIC [9] was greater than 128 µg/mL. The MIC [10] was greater than 128 µg/mL, the EC50 [11] was 12.1 ± 2.7 µM and the Emax [11] was 790 ± 50%. The LD50 [12] was 125 ± 7.1 µM, the “Maximum Inhibition” value [13] was 33% and the “IL-8 inhibitory activity compared with erythromycin” value ([13]; at 100 μM concentration, BEAS-2B) was “more potent inhibitory activity than erythromycin”. It also gave an IC10 [13] of 10 µM and an LD10 [14] of 100 µM.

CC[C@H]1OC(=O)[C@H](C)[C@@H](OC2CC(C)(OC)C(O)C(C)O2)[C@H](C)[C@@H](OC2CC(N(C)C)CC(C)O2)[C@@](C)(O)C[C@@H](C)[C@H](O)[C@H](C)[C@@H](O)[C@]1(C)O (some centres unmarked) [LY101-45] was tested, and the MIC [1] was greater than 128 µg/mL, the MIC [2] was greater than 128 µg/mL and the MIC [3] was greater than 128 µg/mL. It also gave an MIC [4] greater than 128 µg/mL, an MIC [5] greater than 128 µg/mL and an MIC [6] greater than 128 µg/mL. It also gave an MIC [7] greater than 128 µg/mL, an MIC [8] greater than 128 µg/mL and an MIC [9] greater than 128 µg/mL. The MIC [10] was greater than 128 µg/mL, the EC50 [11] was 1.5 ± 0.7 µM and the Emax [11] was 530 ± 60%. For the same compound, the LD50 [12] was 24.2 ± 5.1 µM, the “Maximum Inhibition” value [13] was 40% and the IC10 [13] was 1 µM. For the same compound, the LD10 [14] was 15 µM.

In the case of CC[C@H]1OC(=O)[C@H](C)[C@@H](OC2CC(C)(OC)C(O)C(C)O2)[C@H](C)[C@@H](OC2CC(N(C)C)CC(C)O2)[C@@](C)(O)C[C@@H](C)/C(=N\OCOCCOC)[C@H](C)[C@@H](O)[C@]1(C)O (some centres unmarked) [LY101-39], the MIC [1] is reported as greater than 128 µg/mL, the MIC [2] is reported as greater than 128 µg/mL and the MIC [3] is reported as greater than 128 µg/mL. It also gave an MIC [4] greater than 128 µg/mL, an MIC [5] greater than 128 µg/mL and an MIC [6] greater than 128 µg/mL. It also gave an MIC [7] greater than 128 µg/mL, an MIC [8] greater than 128 µg/mL and an MIC [9] greater than 128 µg/mL. For the same compound, the MIC [10] was greater than 128 µg/mL, the EC50 [11] was 10.1 ± 2.2 µM and the Emax [11] was 740 ± 80%. The LD50 [12] was 90.0 ± 18.4 µM, the “Maximum Inhibition” value [13] was 35% and the IC10 [13] was 20 µM. The LD10 [14] was 100 µM.

CC[C@H]1OC(=O)[C@H](C)[C@@H](O[C@H]2C[C@@](C)(OC)[C@@H](O)[C@H](C)O2)[C@H](C)[C@@H](O[C@H]2C[C@@H](NC)C[C@@H](C)O2)[C@@](C)(O)C[C@@H](C)C(=O)[C@H](C)[C@@H](O)[C@]1(C)O [LY101-25, (3R,4S,5S,6R,9R,11R,12R,13S,14R)-14-ethyl-7,12,13-trihydroxy-4-(((2R,4R,5S,6S)-5-hydroxy-4-methoxy-4,6-dimethyltetrahydro-2H-pyran-2-yl)oxy)-3,5,7,9,11,13-hexamethyl-6-(((2S,4S,6R)-6-methyl-4-(methylamino)tetrahydro-2H-pyran-2-yl)oxy)oxacyclotetradecane-2,10-dione] was tested, and the MIC [1] was greater than 128 µg/mL, the MIC [2] was greater than 128 µg/mL and the MIC [3] was greater than 128 µg/mL. It also gave an MIC [4] greater than 128 µg/mL, an MIC [5] greater than 128 µg/mL and an MIC [6] greater than 128 µg/mL. It also gave an MIC [7] greater than 128 µg/mL, an MIC [8] greater than 128 µg/mL and an MIC [9] greater than 128 µg/mL. The MIC [10] was greater than 128 µg/mL, the EC50 [11] was 1 ± 0.3 µM and the Emax [11] was 540 ± 110%. The LD50 [12] was 21.1 ± 5.3 µM, the “Maximum Inhibition” value [13] was 53% and the IC10 [13] was 1 µM. For the same compound, the LD10 [14] was 15 µM.
